Patent publication US20250223412A1, “BLOWING AGENT, FOAMING RESIN COMPOSITION, POLYURETHANE UREA RESIN FOAM, AND PRODUCTION METHOD FOR POLYURETHANE UREA FOAM” (MITSUBISHI GAS CHEMICAL COMPANY, INC., priority 2022, published 2025)

Assay: Maximum carbon dioxide (CO2) release temperature of amine compound (DSC after CO2 absorption from air)
Type: physicochemical
Conditions: amine compound with CO2 absorbed (air, 23° C., 50% RH, 24 hours); heating 10° C./minute, 23 to 250° C., nitrogen
Protocol: A carbon dioxide detector and a Petri dish were placed in an openable desiccator (inner dimension: 370 mm×260 mm×272 mm). Subsequently the amine compound (5 mmol) was added to the Petri dish in the desiccator and the door was immediately closed to leave the amine compound to stand in the desiccator in an air environment at 23° C. and 50% RH for 24 hours. The initial concentration of carbon dioxide was adjusted to about 400 ppm.
Then the amine compound was taken out of the desiccator to give an amine compound with carbon dioxide absorbed. The maximum carbon dioxide release temperature of the amine compound with carbon dioxide absorbed was measured by subjecting the amine compound to DSC as described below. First, differential scanning calorimetry of the amine compound was performed under conditions of a temperature range of 23 to 250° C., a heating rate of 10° C./minute and a nitrogen atmosphere using a differential thermogravimeter (product name DTG-60 made by Shimadzu Corporation). The temperature at which the amount of heat absorbed due to the desorption of carbon dioxide was the maximum was calculated from the DSC curve obtained, and the temperature was determined as the maximum carbon dioxide release temperature of the amine compound.

| Maximum CO2 release temperature | Compound |
| --- | --- |
| 135.5 °C | NCc1cccc(CN)c1 [MXDA, metaxylylenediamine] |
| 125.7 °C | NCC1CCCC(CN)C1 (stereo not shown) [1,3-BAC, 1,3-bis(aminomethyl)cyclohexane] |
| 114.4 °C | CC1(C)CC(N)CC(C)(CN)C1 (stereo not shown) [IPDA, isophoronediamine] |
| 103.4 °C | NCCN [Ethylenediamine, ethylenediamine] |
